The values below come from patent US20220259167A1 (UNIVERSITY HEALTH NETWORK, priority 2019, published 2022).

Like-named read-outs stand apart in the source and are kept apart here. Some results are limits rather than exact numbers.

The target in one assay is Aβ 1-40 (Homo sapiens, UniProt P05067). Put plainly: Aβ ThT aggregation (fibrillization) assay. The format is biochemical.
The test system of a further assay is SIM-A9 cells. Put plainly: Anti-inflammation assay: TNF-α production from LPS stimulated SIM-A9 cells (ELISA). The format is cell-based. (An ELISA detects its analyte on a solid surface through an enzyme-linked reagent.)
Assay [1] has as its target biotinylated amyloid-beta(1-42) (bioAbeta42) (Homo sapiens, UniProt P05067). The format is biochemical.
For assay [2], the system named is differentiated THP-1 cells. Put plainly: Anti-inflammatory cytokine levels (M2 indicators) during neurotoxicity assay. The format is cell-based, human. The note with it: FIG. 6.
From the text: This study used differentiated (using phorbol myristate acetate, PMA) human acute monocytic leukemia cells, THP-1, cultured in RPMI 1640 medium supplemented with additives. […] On treatment with PMA, the suspension (floating cells) mature to a highly adherent phenotype with increased phagocytic ability (macrophage/microglia like). Typically, after PMA differentiation THP-1 monocytes, display increased cell surface expression of CD11b and CD14. PMA differentiated macrophage/microglia with a combination of LPS/IFNγ/amyloid beta peptide were used to activate the cells; and small synthetic molecules were tested. The cell-free supernatant generated from microglia were then transferred to previously mature neuronal cells lines. The THP-1 monocytes should have adhered to the plate by now; these are defined as M0 macrophages. Remove the differentiating medium containing PMA and add the Experimental medium with stimulants at a final concentration of IFNγ 400 ng/ml and LPS 1 μg/ml. These stimulants are the first stimulus for the conversion into M1 macrophages. Keep the first stimulus on for three hours and add 25 μM of compounds in the required wells (This is aimed at converting M1→M2 macrophages/microglia like cells). […]
For a further assay, the system named is SH-SY5Y. Put plainly: Neurotoxicity (Ntox) assay: SH-SY5Y viability after supernatant from activated differentiated THP-1 cells. The note with it: 25 μM compound on THP-1; SH-SY5Y viability 72 h post-addition of supernatant. The format is cell-based, human. The source says: This study used differentiated (using phorbol myristate acetate, PMA) human acute monocytic leukemia cells, THP-1, cultured in RPMI 1640 medium supplemented with additives. Earlier studies with THP-1 cell line indicate that upon LPS/IFNγ activation, these cells release neurotoxic factors [Cheung Y T, et al. Neurotoxicology. 2009; 30(1):127-35]. These are remarkably plastic cells, which can potentially polarize to multiple cell lineages on the application of specific stimuli. On treatment with PMA, the suspension (floating cells) mature to a highly adherent phenotype with increased phagocytic ability (macrophage/microglia like). Typically, after PMA differentiation THP-1 monocytes, display increased cell surface expression of CD11b and CD14. PMA differentiated macrophage/microglia with a combination of LPS/IFNγ/amyloid beta peptide were used to activate the cells; and small synthetic molecules were tested. The cell-free supernatant generated from microglia were then transferred to previously mature neuronal cells lines.
Seed (0.5×10^6) THP-1 cells in each well of a 12-well tissue culture plate in warm complete growth medium up to 500 μl to 1 ml per well. […]

Setting [3] is: compound at 100 μM, Example 5, versus DMSO control.
[4] abbreviates: compound 2.7 μM, LPS stimulated SIM-A9 cells, read-out: TNF-α Inhibition.
Setting [5] is: Example 5, ND = inhibition activity not detected over 200 μM, read-out: Inhibition of Aβ oligomerization, μM IC50.
Setting [6] is: compound at 100 μM, Example 5, versus DMSO control, read-out: Inhibition of Aβ fibrillization at concentration 100 μM, Inhibition %.
Where [7] appears, read: read-out: Inhibition of Aβ fibrillization at concentration 100 μM, Inhibition %, compound at 100 μM, Example 5, versus DMSO control.
Setting [8] is: SIM-A9, read-out: TNF-α Inhibition.
Setting [9] is: Example 2, read-out: Anti-Aβ oligomerization IC50.
Where [10] appears, read: read-out: % inhibition of Aβ fibrillization (at 100 μ M), compound at 100 μM, Example 3.

Sequence of biotinylated amyloid-beta(1-42) (bioAbeta42) (P05067 672-713): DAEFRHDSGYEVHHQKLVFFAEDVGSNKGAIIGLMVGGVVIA
Sequence of Aβ 1-40 (P05067 672-711): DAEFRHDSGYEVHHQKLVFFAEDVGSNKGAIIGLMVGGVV

One may read the IC50 as the point on the concentration scale where inhibition reaches its midpoint. Regarding `CNS(=O)(=O)c1cc(C(N)=O)c(NCc2ccco2)cc1Cl` [WW101, 4-Chloro-2-((furan-2-ylmethyl)amino)-5-(N-methylsulfamoyl)benzamide], the “Inhibition of Aβ fibrillization at concentration 100 μM, Inhibition %” value (“Inhibition of Aβ fibrillization … Inhibition %” below) on Aβ 1-40 (setting [3]) is “Pro- fibrillization”. The inhibition at 2.7 µM in the assay with SIM-A9 cells (setting [4]) was 27%. Further, the IC50 in assay [1] (setting [5]) turned out to be 82.4 ± 28.5 µM.
On to `O=C(O)c1cc(S(=O)(=O)N2CCCCC2)c(Cl)cc1NCc1ccco1` [WW096, 4-Chloro-2-((furan-2-ylmethyl)amino)-5-(piperidin-1-ylsulfonyl) Benzoic Acid], for which, at Aβ 1-40 (setting [6]), the inhibition at 100 µM amounted to 19.1%. For the same compound, the inhibition at 2.7 µM in the assay on SIM-A9 cells (setting [4]) was 11%. The IC50 in assay [1] (setting [5]) was greater than 200 µM.
On to `OC(c1ccc(Cl)cc1NCc1cscn1)C(F)(F)F` (stereo not drawn) [WW021, 1-(4-Chloro-2-((thiazol-4-ylmethyl)amino)phenyl)2,2,2-trifluoroethan-1-ol], for which the inhibition at 100 µM at Aβ 1-40 (setting [7]) worked out at 27.9%. For the same compound, in the assay on SIM-A9 cells (setting [8]), the inhibition at 2.7 µM was 38%. Moreover, the IC50 in assay [1] (setting [5]) was greater than 200 µM.
Take `CNS(=O)(=O)c1cc(C(=O)O)c(NCc2ccco2)cc1Cl` [WW032, 4-chloro-2-((furan-2-ylmethyl)amino)-5-(N-methylsulfamoyl) Benzoic Acid]: the “Inhibition of Aβ fibrillization … Inhibition %” value at Aβ 1-40 (setting [3]) is listed as “Pro- fibrilliza- tion”. Further, the IC50 was 55.1 µM in assay [1] (setting [9]) and 53 ± 3.37 µM in assay [1] (setting [5]).
In the case of `OC(c1ccc(Br)cc1NCc1cscn1)C(F)(F)F` (stereo not drawn) [WW017, 1-(4-Bromo-2-((thiazol-4-ylmethyl)amino)phenyl)-2,2,2-trofluoroethan-1-ol], the inhibition at 100 µM on Aβ 1-40 (setting [10]) and on Aβ 1-40 (setting [7]) was 33% each time. Further, the inhibition at 2.7 µM in the assay on SIM-A9 cells (setting [8]) worked out at 31%. The IC50 in assay [1] (setting [5]) was greater than 200 µM.
`CCCCCCNS(=O)(=O)c1cc(C(=O)O)c(NCc2ccco2)cc1Cl` [WW064, 4-Chloro-2-((furan-2-ylmethyl)amino)-5-(N-hexylsulfamoyl) Benzoic Acid]: the inhibition at 100 µM on Aβ 1-40 (compound at 100 μM, Example 3, read-out: % inhibition of Aβ fibrillization (at 100 μ M)) is 39.2%; on Aβ 1-40 (setting [6]), 39.2%. For the same compound, the results for the IC50 in assay [1] (setting [9]) and in assay [1] (setting [5]) were 46.1 µM and 47.8 ± 14.3 µM, respectively.
As for `NS(=O)(=O)c1cc(C(=O)O)c(NCc2ccco2)cc1Cl` [Furosemide, 4-Chloro-2-((furan-2-ylmethyl)amino)-5-sulfamoylbenzoic Acid, reference compound], the inhibition at 100 µM on Aβ 1-40 (setting [6]) turned out to be 8.56%. The “Concentrations of anti-inflammatory cytokines (IL-4, IL-10, IL-1RA, Arginase; M2 indicators)” value in assay [2] was “increases the concentrations of anti-inflammatory cytokines”. For the same compound, the IC50 in assay [1] (setting [5]) is greater than 200 µM.
Consider `COc1ccc(C(O)C(F)(F)F)c(NCc2cscn2)c1` (stereo not drawn) [WW005], for which the inhibition at 100 µM at Aβ 1-40 (setting [7]) is 6.49%. The inhibition at 2.7 µM in the assay on SIM-A9 cells (setting [8]) came to 27%. Moreover, the IC50 in assay [1] (setting [5]) came to 130 ± 28.4 µM.
Take `CNS(=O)(=O)c1cc(C(=O)OC)c(NCc2ccco2)cc1Cl` [WW100]: at Aβ 1-40 (setting [6]), the inhibition at 100 µM was determined as 27.1%. Further, the inhibition at 2.7 µM in the assay on SIM-A9 cells (setting [4]) came out at 31%. In assay [1] (setting [5]), the IC50 was 56 ± 26.6 µM.
As for `O=C(O)c1ccc(Cl)cc1NCc1ccco1` [WW001, 4-Chloro-2-((furan-2-ylmethyl)amino) Benzoic Acid], the inhibition at 100 µM at Aβ 1-40 (setting [6]) was 20.2%. For the same compound, in assay [1] (setting [5]), the IC50 was greater than 200 µM.
Regarding `O=C(O)c1ccccc1NCc1ccccc1` [2-(benzylamino)benzoic acid], in the assay with SH-SY5Y, the “Rescue of neuronal cells under Aβ-induced neurotoxicity / neuroinflammation” value is listed as “able to rescue neuronal cells under Aβ-induced neurotoxicity”.
As to `CNC(=O)c1cc(S(=O)(=O)NC)c(Cl)cc1NCc1ccco1` [WW102, 4-Chloro-2-((furan-2-ylmethyl)amino)-N-methyl-5-(N-methylsulfamoyl)benzamide], the “Inhibition of Aβ fibrillization … Inhibition %” value on Aβ 1-40 (setting [3]) was “Pro- fibrillization”. In addition, the inhibition at 2.7 µM in the assay with SIM-A9 cells (setting [4]) came out at 25%. The IC50 in assay [1] (setting [5]) was determined as 103 ± 22.1 µM.
Turning to `OC(c1ccc(Cl)cc1NCc1ccco1)C(F)(F)F` (stereo not drawn) [WW013, 1-(4-Chloro-2-((furan-2-ylmethyl)amino)phenyl)-2,2,2-trifluoroethan-1-ol], the inhibition at 100 µM on Aβ 1-40 (setting [7]) was determined as 60.7%. In the assay on SIM-A9 cells (setting [8]), the inhibition at 2.7 µM was 33%. Also, the IC50 in assay [1] (setting [5]) is greater than 200 µM.
The corresponding values for `COc1ccc(C(O)C(F)(F)F)c(NCc2ccco2)c1` (stereo not drawn) [WW003, 2,2,2-trifluoro-1-(2-((furan-2-ylmethyl)amino)-4-methoxyphenyl) ethan-1-ol] are 36.8%, 28% and greater than 200 µM.
The corresponding values for `OC(c1ccc(F)cc1NCc1ccco1)C(F)(F)F` (stereo not drawn) [WW011, 2,2,2-Trifluoro-1-(4-fluoro-2-((furan-2-ylmethyl)amino)phenyl) ethan-1-ol] are 5.14%, 25.9% and 153 ± 48 µM.
For `OC(c1ccc(Br)cc1NCc1ccco1)C(F)(F)F` (stereo not drawn) [WW016, 1-(4-Bromo-2-((furan-2-ylmethyl)amino)phenyl)-2,2,2-trifluoroethan-1-ol], the results for the inhibition at 100 µM at Aβ 1-40 (setting [10]) and on Aβ 1-40 (setting [7]) were 81.3% and 81%, respectively. The inhibition at 2.7 µM in the assay on SIM-A9 cells (setting [8]) was 34.8%. In assay [1] (setting [5]), the IC50 is greater than 200 µM.
